From patent publication US12291518B2, “Thyroid hormone receptor agonists and use thereof” (Eccogene Inc., priority 2020, dated 2025) come the findings set out here.

Like-named read-outs stand apart in the source and are kept apart here.

For one experiment, the target named is T1, THR beta-LBD (Homo sapiens, UniProt P10828).
T1 construct: THR beta-LBD (the final concentration is 0.5 nM) was added to the 384-well assay plate; purchased Invitrogen PV4686
T1 sequence (P10828 217-461 limits assumed): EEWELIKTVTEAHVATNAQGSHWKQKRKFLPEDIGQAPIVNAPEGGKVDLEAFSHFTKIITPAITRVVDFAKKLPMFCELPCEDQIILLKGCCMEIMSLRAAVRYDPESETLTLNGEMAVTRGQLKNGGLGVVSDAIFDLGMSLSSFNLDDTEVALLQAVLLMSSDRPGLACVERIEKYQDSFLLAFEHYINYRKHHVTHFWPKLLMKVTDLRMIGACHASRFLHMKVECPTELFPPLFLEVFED
The experiment in a line: THR-β Coactivator Peptide Recruitment Assay (LanthaScreen TR-FRET). The class given is biochemical. Summed up: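 Agonist-driven coactivator recruitment read as a 520/495 nm TR-FRET emission ratio after 2 h at room temperature. Final concentrations: THR beta-LBD 0.5 nM, fluorescein-SRC2-2 peptide 0.1 nM, terbium anti-GST antibody 2 nM. EC50 from four-parameter dose-response fitting.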
(TR-FRET usually uses a lanthanide donor and a delayed reading to cut background.)

Another experiment concerns the target T2, THR alpha-LBD (Homo sapiens, UniProt P10827).
T2 construct: except that THR alpha-LBD of a final concentration 0.25 nM was used; purchased Invitrogen PV4687
The experiment in a line: THR-α Coactivator Peptide Recruitment Assay (LanthaScreen TR-FRET). Format: biochemical. Summed up: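 TR-FRET coactivator recruitment with THR alpha-LBD at 0.25 nM final, Fluorescein-SRC2-2 peptide 0.1 nM and Tb-labeled anti-GST antibody 2 nM; 2 h incubation at room temperature. 520/495 nm emission ratio fitted to a four-parameter sigmoidal curve to give EC50.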

Where [1] appears, read: TR-FRET coactivator recruitment, THR beta-LBD 0.5 nM.
The mark [2] stands for this setting: TR-FRET coactivator recruitment, THR beta-LBD 0.5 nM, read-out: THRβ EC50.
The mark [3] stands for this setting: TR-FRET coactivator recruitment, THR alpha-LBD 0.25 nM.
Where [4] appears, read: TR-FRET coactivator recruitment, THR alpha-LBD 0.25 nM, read-out: THRα EC50.

T2 sequence (P10827 163-410 isoform P10827-2 limits assumed, other chains not shown): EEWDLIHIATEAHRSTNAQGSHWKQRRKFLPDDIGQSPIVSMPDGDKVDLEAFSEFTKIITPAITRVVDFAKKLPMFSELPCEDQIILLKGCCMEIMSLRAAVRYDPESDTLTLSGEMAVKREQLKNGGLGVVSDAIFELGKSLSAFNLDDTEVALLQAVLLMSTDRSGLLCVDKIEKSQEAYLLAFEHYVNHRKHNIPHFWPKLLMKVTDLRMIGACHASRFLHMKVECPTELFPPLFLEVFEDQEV

For `O=C(CNS(=O)(=O)c1cc(Oc2c(Cl)cc(-n3nc(C(F)F)c(=O)[nH]c3=O)cc2Cl)ccc1O)NC1CCC1` [Compound 62, N-cyclobutyl-2-((5-(2,6-dichloro-4-(6-(difluoromethyl)-3,5-dioxo-4,5-dihydro-1,2,4-triazin-2(3H)-yl)phenoxy)-2-hydroxyphenyl)sulfonamido)acetamide], at THR beta-LBD (setting [1]), the “THRβ Emax” value was “B (75~90)”. The EC50 is 2 to 20 nM at THR beta-LBD (setting [2]) and 200 to 1000 nM on THR alpha-LBD (setting [4]). At THR alpha-LBD (setting [3]), the “THRα Emax” value is “B (40~85)”.
On to `O=C(CNS(=O)(=O)c1cc(Oc2c(Cl)cc(-n3nc(C(F)F)c(=O)[nH]c3=O)cc2Cl)ccc1O)N1CCC1` [Compound 63, N-[2-(azetidin-1-yl)-2-oxo-ethyl]-5-[2,6-dichloro-4-[6-(difluoromethyl)-3,5-dioxo-1,2,4-triazin-2-yl]phenoxy]-2-hydroxy-benzenesulfonamide], for which the “THRβ Emax” value on THR beta-LBD (setting [1]) is on record as “B (75~90)”. Moreover, the 50% effective concentration (EC50) at THR beta-LBD (setting [2]) is 20 to 100 nM; on THR alpha-LBD (setting [4]) it was greater than 1000 nM. The “THRα Emax” value on THR alpha-LBD (setting [3]) is “B (40~85)”.
Taken in the same sequence, the figures for `O=c1[nH]c(=O)n(-c2cc(Cl)c(Oc3cnc(O)c(S(=O)(=O)NC4CCC4)c3)c(Cl)c2)nc1C(F)F` [Compound 64, N-cyclobutyl-5-[2,6-dichloro-4-[6-(difluoromethyl)-3,5-dioxo-1,2,4-triazin-2-yl]phenoxy]-2-hydroxy-pyridine-3-sulfonamide] were “B (75~90)”, greater than 100 nM, greater than 1000 nM and “C (<40)”.
Taken in the same sequence, the figures for `COCCNS(=O)(=O)c1cc(Oc2c(Cl)cc(-n3nc(C(F)F)c(=O)[nH]c3=O)cc2Cl)ccc1O` [Compound 65, 5-[2,6-dichloro-4-[6-(difluoromethyl)-3,5-dioxo-1,2,4-triazin-2-yl]phenoxy]-2-hydroxy-N-(2-methoxyethyl) benzenesulfonamide] were “B (75~90)”, less than 2 nM, 2 to 200 nM and “B (40~85)”.
Taken in the same sequence, the figures for `O=c1[nH]c(=O)n(-c2cc(Cl)c(Oc3ccc(O)c(S(=O)(=O)N[C@@H]4CC[C@H](O)C4)c3)c(Cl)c2)nc1C(F)F` [Compound 66, 5-(2,6-dichloro-4-(6-(difluoromethyl)-3,5-dioxo-4,5-dihydro-1,2,4-triazin-2(3H)-yl)phenoxy)-2-hydroxy-N-((1R,3S)-3-hydroxycyclopentyl)benzenesulfonamide] were “C (<75)”, 2 to 20 nM, 2 to 200 nM and “B (40~85)”.
For the compound `O=c1[nH]c(=O)n(-c2cc(Cl)c(Oc3ccc(O)c(S(=O)(=O)N[C@H]4CC[C@@H](O)C4)c3)c(Cl)c2)nc1C(F)F` [Compound 67, 5-(2,6-dichloro-4-(6-(difluoromethyl)-3,5-dioxo-4,5-dihydro-1,2,4-triazin-2(3H)-yl)phenoxy)-2-hydroxy-N-((1S,3R)-3-hydroxycyclopentyl)benzenesulfonamide], the “THRβ Emax” value at THR beta-LBD (setting [1]) is reported as “B (75~90)”. Moreover, the figures for the EC50 on THR beta-LBD (setting [2]) and on THR alpha-LBD (setting [4]) were 2 to 20 nM and 2 to 200 nM, respectively. Further, the “THRα Emax” value on THR alpha-LBD (setting [3]) is “B (40~85)”.
Consider `NS(=O)(=O)c1cc(Oc2c(Cl)cc(-n3nc(C(F)F)c(=O)[nH]c3=O)cc2Cl)ccc1O` [Compound 68, 5-[2,6-dichloro-4-[6-(difluoromethyl)-3,5-dioxo-1,2,4-triazin-2-yl]phenoxy]-2-hydroxy-benzene sulfonamide], for which the “THRβ Emax” value at THR beta-LBD (setting [1]) is recorded as “B (75~90)”. For the same compound, the EC50 on THR beta-LBD (setting [2]) lay within 2 to 20 nM; at THR alpha-LBD (setting [4]) it was 2 to 200 nM. In addition, at THR alpha-LBD (setting [3]), the “THRα Emax” value is recorded as “A (85~110)”.
In the case of `N#C[C@H]1C[C@@H](NS(=O)(=O)c2cc(Oc3c(Cl)cc(-n4nc(C(F)F)c(=O)[nH]c4=O)cc3Cl)ccc2O)C1` [Compound 69, N-((1s,3s)-3-cyanocyclobutyl)-5-(2,6-dichloro-4-(6-(difluoromethyl)-3,5-dioxo-4,5-dihydro-1,2,4-triazin-2(3H)-yl)phenoxy)-2-hydroxybenzenesulfonamide], on THR beta-LBD (setting [1]), the “THRβ Emax” value was “A (90~110)”. The EC50 at THR beta-LBD (setting [2]) is less than 2 nM; on THR alpha-LBD (setting [4]), 2 to 200 nM. In addition, the “THRα Emax” value at THR alpha-LBD (setting [3]) is given as “A (85~110)”.
Regarding `O=c1[nH]c(=O)n(-c2cc(Cl)c(Oc3ccc(O)c(S(=O)(=O)NC4(CO)CC4)c3)c(Cl)c2)nc1C(F)F` [Compound 70, 5-(2,6-dichloro-4-(6-(difluoromethyl)-3,5-dioxo-4,5-dihydro-1,2,4-triazin-2(3H)-yl)phenoxy)-2-hydroxy-N-(1-(hydroxymethyl)cyclopropyl)benzenesulfonamide], the “THRβ Emax” value on THR beta-LBD (setting [1]) is listed as “B (75~90)”. Besides, the results for the 50% effective concentration (EC50) at THR beta-LBD (setting [2]) and at THR alpha-LBD (setting [4]) were 2 to 20 nM and 2 to 200 nM, respectively. Besides, the “THRα Emax” value at THR alpha-LBD (setting [3]) is “B (40~85)”.
As for `O=C(NC1CC1)C1(NS(=O)(=O)c2cc(Oc3c(Cl)cc(-n4nc(C(F)F)c(=O)[nH]c4=O)cc3Cl)ccc2O)CC1` [Compound 71, N-cyclopropyl-1-[[5-[2,6-dichloro-4-[6-(difluoromethyl)-3,5-dioxo-1,2,4-triazin-2-yl]phenoxy]-2-hydroxy-phenyl]sulfonylamino] cyclopropane carboxamide], the “THRβ Emax” value on THR beta-LBD (setting [1]) was “A (90~110)”. For the same compound, the EC50 on THR beta-LBD (setting [2]) was 2 to 20 nM; on THR alpha-LBD (setting [4]), 2 to 200 nM. Moreover, at THR alpha-LBD (setting [3]), the “THRα Emax” value was “B (40~85)”.
Consider `CS(=O)(=O)NC1CN(S(=O)(=O)c2cc(Oc3c(Cl)cc(-n4nc(C(F)F)c(=O)[nH]c4=O)cc3Cl)ccc2O)C1` [Compound 73, N-[l-[5-[2,6-dichloro-4-[6-(difluoromethyl)-3,5-dioxo-1,2,4-triazin-2-yl]phenoxy]-2-hydroxy-phenyl]sulfonylazetidin-3-yl] methane sulfonamide], for which, at THR beta-LBD (setting [1]), the “THRβ Emax” value was “C (<75)”. Further, the figures for the EC50 on THR beta-LBD (setting [2]) and on THR alpha-LBD (setting [4]) were 2 to 20 nM and 2 to 200 nM, respectively. The “THRα Emax” value at THR alpha-LBD (setting [3]) is on record as “B (40~85)”.
Taken in the same sequence, the figures for `O=c1[nH]c(=O)n(-c2cc(Cl)c(Oc3ccc(O)c(S(=O)(=O)NC4CC5(CC(O)C5)C4)c3)c(Cl)c2)nc1C(F)F` (centres unmarked) [Compound 74, 5-[2,6-dichloro-4-[6-(difluoromethyl)-3,5-dioxo-1,2,4-triazin-2-yl]phenoxy]-2-hydroxy-N-(2-hydroxyspiro [3.3]heptan-6-yl) benzene sulfonamide] were “B (75~90)”, 20 to 100 nM, 200 to 1000 nM and “B (40~85)”.
With `O=c1[nH]c(=O)n(-c2cc(Cl)c(Oc3ccc(O)c(S(=O)(=O)N4CC[C@@H](O)C4)c3)c(Cl)c2)nc1C(F)F` [Compound 76, (R)-2-(3,5-dichloro-4-(4-hydroxy-3-((3-hydroxypyrrolidin-1-yl)sulfonyl)phenoxy)phenyl)-6-(difluoromethyl)-1,2,4-triazine-3,5(2H,4H)-dione], on THR beta-LBD (setting [1]), the “THRβ Emax” value is “B (75~90)”. Besides, the EC50 at THR beta-LBD (setting [2]) was less than 2 nM; on THR alpha-LBD (setting [4]), 2 to 200 nM. Also, the “THRα Emax” value at THR alpha-LBD (setting [3]) is “A (85~110)”.
As for `O=c1[nH]c(=O)n(-c2cc(Cl)c(Oc3ccc(O)c(S(=O)(=O)N4CC[C@H](O)C4)c3)c(Cl)c2)nc1C(F)F` [Compound 77, (S)-2-(3,5-dichloro-4-(4-hydroxy-3-((3-hydroxypyrrolidin-1-yl)sulfonyl)phenoxy)phenyl)-6-(difluoromethyl)-1,2,4-triazine-3,5(2H,4H)-dione], the “THRβ Emax” value at THR beta-LBD (setting [1]) is “B (75~90)”. For the same compound, the EC50 at THR beta-LBD (setting [2]) was less than 2 nM; at THR alpha-LBD (setting [4]) it was 2 to 200 nM. The “THRα Emax” value at THR alpha-LBD (setting [3]) was “A (85~110)”.
As for `O=C(N[C@H]1C[C@H](NS(=O)(=O)c2cc(Oc3c(Cl)cc(-n4nc(C(F)F)c(=O)[nH]c4=O)cc3Cl)ccc2O)C1)C1CC1` [Compound 78, N-[3-[[5-[2,6-dichloro-4-[6-(difluoromethyl)-3,5-dioxo-1,2,4-triazin-2-yl]-phenoxy]-2-hydroxy-phenyl]-sulfonylamino]-cyclobutyl]-cyclopropanecarboxamide], the figures for the EC50 on THR beta-LBD and at THR alpha-LBD were 20 to 100 nM and 200 to 1000 nM, respectively. At THR beta-LBD (setting [1]), the “THRβ Emax” value is given as “C (<75)”. In addition, on THR alpha-LBD (setting [3]), the “THRα Emax” value is “B (40~85)”.
For `N#CC12CC(NS(=O)(=O)c3cc(Oc4c(Cl)cc(-n5nc(C(F)F)c(=O)[nH]c5=O)cc4Cl)ccc3O)(C1)C2` [Compound 79, N-(3-cyanobicyclo[1.1.1]pentan-1-yl)-5-(2,6-dichloro-4-(6-(difluoromethyl)-3,5-dioxo-4,5-dihydro-1,2,4-triazin-2 (3H)-yl)phenoxy)-2-hydroxybenzenesulfonamide], the “THRβ Emax” value at THR beta-LBD (setting [1]) is “B (75~90)”. The results for the half-maximal effective concentration (EC50) on THR beta-LBD (setting [2]) and on THR alpha-LBD (setting [4]) were less than 2 nM and 2 to 200 nM, respectively. Further, the “THRα Emax” value on THR alpha-LBD (setting [3]) is reported as “A (85~110)”.
In the case of `O=c1[nH]c(=O)n(-c2cc(Cl)c(Oc3ccc(O)c(S(=O)(=O)NCC4(O)CC4)c3)c(Cl)c2)nc1C(F)F` [Compound 80, 5-(2,6-dichloro-4-(6-(difluoromethyl)-3,5-dioxo-4,5-dihydro-1,2,4-triazin-2(3H)-yl)phenoxy)-2-hydroxy-N-((1-hydroxycyclopropyl)methyl)benzenesulfonamide], the “THRβ Emax” value at THR beta-LBD (setting [1]) is on record as “A (90~110)”. Further, the EC50 lay in the range of 2 to 20 nM on THR beta-LBD (setting [2]) and 2 to 200 nM on THR alpha-LBD (setting [4]). For the same compound, the “THRα Emax” value at THR alpha-LBD (setting [3]) is “A (85~110)”.

As usually defined, the EC50 is the concentration at which the effect is half-maximal.
